According to the NIST ThermoML archive (doi:10.1021/je0342421):

Conditions: Liquid

CCOC(C)(C)C [2-ethoxy-2-methylpropane]
Conditions | vapor or sublimation pressure [kPa]
312.49 K | 31.7
318.55 K | 40.2
323.25 K | 47.2
325.18 K | 51.4
326.6 K | 54.1
329.02 K | 59
331.96 K | 65.3
333.28 K | 67.4
335.92 K | 74.8
338.08 K | 80.5
340.01 K | 85.8
341.49 K | 90.1
342.88 K | 94.3
343.86 K | 97
345.77 K | 102.8
